Where two headings read alike, the source gives them in different places.
Experiments:
[1] = biological target: recombinant human FECH (Homo sapiens (Human), UniProt P22830); test: FECH enzymatic activity assay (Ni2+ mesoporphyrin IX formation, absorbance at 550 nm); assay type: biochemical
Protocol: The human FECH expression plasmid pHDTF20 was obtained in E. coli cells from the Dailey Lab (University of Georgia). The cells were grown in Circlegrow medium (MP Biomedicals, LLC #3000-122) with ampicillin for 20 hours. Cells were harvested, lysed in a Tris-MOPS buffer and purified by immobilized metal affinity chromatography using HisPur Cobalt resin (Thermo Fisher #89965).
The activity assay buffer was 100 mM Tris-HCl pH 8.0 with 0.05% octyl glucoside detergent. Assay reagents included 100 μM NiCl (Sigma #339350), 0.75 μM FECH enzyme and 100 μM mesoporphyrin (Sigma #258806) prepared in ammonium hydroxide (Santa Cruz #sc-214535).
The kinetic assay was optimized for a 384-well format. For the 384-well assay, each well contained a 50 μL reaction with 40 μL buffer, 5 μL mesoporphyrin solution, 5 μL NiCl and FECH solution. […] This time point was used for the chemical screen.
A mixture of assay buffer, NiCl and FECH enzyme (15 μL) was added to all wells on the assay plate using a MulitFlo dispenser. To start the reaction, 15 μL of a 333 μM mesoporphyrin solution in assay buffer was added to the plate, the plate spun down and the absorbance at OD=550 nm immediately read to establish a read at time 0. Plates were read for absorbance at OD=550 nm again at t=20 minutes and the activity was expressed as the change in the absorbance over the 20 minute reaction.
Compounds, reordered from ChemDiv or synthesized as described above, were made to 10 mM in DMSO and tested in the FECH enzymatic assay at final concentrations of […] 100 μM (1% final DMSO concentration). IC50 values for the compounds were determined using GraphPad Prism software.
A kinetic assay to monitor FECH enzymatic activity was adapted from a published protocol (Burden et a., Biochim Biophys Acta 1435, 191-197 (1999)).

[2] = test system: HRECs; test: HREC proliferation assay (alamarBlue), GI50 determination; assay type: cell-based, human; settings: proliferation of HRECs
Protocol: Human retinal microvascular endothelial cells (HRECs) were cultured in EGM-2 medium (Lonza). Cells (2500/well) in EGM-2 medium were plated in 48 wells in the center of a 96-well black with clear bottom TC treated plate are allowed to attach overnight. The cells were treated with compounds such that final assay concentrations were 100 μM, 30 μM, 10 μM, 3 μM, 1 μM, 100 nM, and 10 nM with DMSO control (1% final DMSO concentration). Cells were allowed to proliferate for 44 hours prior to addition of alamarBlue. The alamarBlue reagent is a flurorometric/colorimetric redox reagent that is reduced in the presence of growing cells. The assay was completed with a read of fluorescence at excitation of 560 nm and emission of 590 nm. GI50 values were determined using GraphPad Prism software.

[3] = test system: FECH in HRECs; test: PPIX accumulation assay in HRECs; assay type: cell-based, human; settings: after 5-ALA treatment; vs. DMSO control
Protocol: To confirm that ferrochelatase is inhibited in HRECs after treatment with compounds, the buildup of FECH's substrate PPIX was assayed fluorometrically. HRECs were plated for 80% confluency at the time of treatment in 6 cm dishes coated with attachment factor. Cells were then treated with compound in DMSO (1% DMSO final concentration) for 2 hours at 37° C. 5-Aminolevulinic acid, the first dedicated precursor in the heme synthesis pathway, was then added to the cells at 1 mM and allowed to incubate at 37° C. for another 2 hours. Cells were washed with PBS and flash frozen. Cells were lysed in 200 μL RIPA buffer and cleared by centrifugation at 14,000 g for 15 minutes at 4° C. The cleared lysates (20 μL) were added to wells of a 384 well plate in triplicate. An equal volume of 2M HC104 prepared in methanol was added to each well and PPIX was detected by immediately reading fluorescence on a Biotek Synergy H1 plate reader at 406 nm excitation and 610 nm emission. Total PPIX accumulation was determined by comparing fluorescence output with PPIX standards, prepared in DMSO and diluted in RIPA buffer and 2M HC104 (1:1 ratio) and read on the same plate. Protein in the cleared lysates was quantified with a standard Bradford assay and the amount of PPIX accumulation is expressed per mg protein.

[4] = test system: HRECs; test: Matrigel-based tube formation assay; assay type: cell-based, human; settings: 8 hours, total tubule length vs. DMSO control
Protocol: The Matrigel-based tube formation assay was performed. Briefly, 50 μL Matrigel was allowed to solidify in a 96-well black, clear bottom plate at 37° C. for 20 minutes. HRECs were added to the solid Matrigel at 15,000 cells/well in 100 μL EGM-2 and dosed with appropriate concentrations of compound in DMSO, 1 μL/well. Tube formation was observed every 2 hours by brightfield microscopy and images were taken after 8 hours of tube formation. Six images per treatment were analyzed using the AngiogenesisAnalyzer plugin for ImageJ and HREC total tubule length for treated cells was normalized to DMSO controls. Statistical analysis was completed using GraphPad Prism, with ANOVA followed by Dunnett's post hoc tests used to compare treatments to control (DMSO).

[5] = recombinant FECH, read-out: FECH IC50

Chain of recombinant human FECH (P22830 55-423): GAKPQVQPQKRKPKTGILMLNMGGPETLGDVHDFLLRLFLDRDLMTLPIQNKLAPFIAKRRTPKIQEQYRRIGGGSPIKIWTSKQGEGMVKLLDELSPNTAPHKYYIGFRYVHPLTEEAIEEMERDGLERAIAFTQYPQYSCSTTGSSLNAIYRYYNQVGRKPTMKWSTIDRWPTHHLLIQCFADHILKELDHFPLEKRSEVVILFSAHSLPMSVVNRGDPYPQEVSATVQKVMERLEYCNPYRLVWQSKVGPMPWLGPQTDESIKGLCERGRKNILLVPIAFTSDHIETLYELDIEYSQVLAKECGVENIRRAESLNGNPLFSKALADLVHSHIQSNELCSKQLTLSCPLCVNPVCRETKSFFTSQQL

Row | IC50 [1, 5] [µM] | Compound | GI50 ([2]; Homo sapiens, HREC, 44 h) [µM] | also measured
1 | 0.178 | CC(C)(C)c1ccc(-c2nc3[nH]c(CNc4ccc5ccccc5n4)cc(=O)n3n2)cc1 [Example 4e, 2-(4-(tert-butyl)phenyl)-5-((quinolin-2-ylamino)methyl)-[1,2,4]triazolo[1,5-a]pyrimidin-7(4H)-one] | 92.5 | buildup of PPIX in HRECs [3]: induced a buildup of PPIX; tube formation of HRECs [4]: blocked tube formation
2 |  | CC(C)(C)c1ccc(-c2nc3[nH]c(CNc4cccc(Cl)c4)cc(=O)n3n2)cc1 [Example 4h, 2-(4-(tert-butyl)phenyl)-5-(((3-chlorophenyl)amino)methyl)-[1,2,4]triazolo[1,5-a]pyrimidin-7(4H)-one] | > 100 | tube formation of HRECs [4]: blocked tube formation
3 | 92 | CCCc1cc(=O)n2nc(CNc3ccccc3C)nc2[nH]1 [Example 5a, 5-propyl-2-((o-tolylamino)methyl)-[1,2,4]triazolo[1,5-a]pyrimidin-7(4H)-one] | 75.5 | tube formation of HRECs [4]: blocked tube formation
4 | 0.293 | CCCc1cc(=O)n2nc(CNc3ccc(C)cc3)nc2[nH]1 [Example 5c, 5-propyl-2-((p-tolylamino)methyl)-[1,2,4]triazolo[1,5-a]pyrimidin-7(4H)-one] | 28.3 | tube formation of HRECs [4]: blocked tube formation
5 | > 100 | CCCc1cc(=O)n2nc(CNc3ccccc3Cl)nc2[nH]1 [Example 5d, 2-(((2-chlorophenyl)amino)methyl)-5-propyl-[1,2,4]triazolo[1,5-a]pyrimidin-7(4H)-one] | 25.7 | tube formation of HRECs [4]: blocked tube formation
6 | > 100 | CCCc1cc(=O)n2nc(CNc3ccc(C(C)(C)C)cc3)nc2[nH]1 [Example 5h, 2-(((4-(tert-butyl)phenyl)amino)methyl)-5-propyl-[1,2,4]triazolo[1,5-a]pyrimidin-7(4H)-one] | 3.8 | tube formation of HRECs [4]: blocked tube formation
7 | 22.5 | Cc1ccc(NCc2nc3[nH]c(C)cc(=O)n3n2)cc1 [Example 5w, 5-methyl-2-((p-tolylamino)methyl)-[1,2,4]triazolo[1,5-a]pyrimidin-7(4H)-one] | > 100 | 
8 | 0.808 | COc1ccc(Cl)cc1NCc1cc(=O)n2nc(-c3ccc(C(C)(C)C)cc3)nc2[nH]1 [Example D351-0303] | 21.7 | 
9 | 0.0981 | Cc1ccc(Cl)cc1NCc1cc(=O)n2nc(-c3ccc(C(C)(C)C)cc3)nc2[nH]1 [Example D351-0310] | 42.3 | 
10 | 1.39 | Cc1cccc(C)c1NCc1cc(=O)n2nc(-c3ccc(C(C)(C)C)cc3)nc2[nH]1 [Example D351-0312] | > 100 | 
11 | 0.346 | Cc1ccc(Cl)cc1NCc1cc(=O)n2nc(-c3ccccc3C)nc2[nH]1 [Example D351-0414] | > 100 | 
12 | 0.0614 | COc1ccc(NCc2nc3[nH]c(C)c(Cc4ccc(Cl)cc4)c(=O)n3n2)cc1 [Example D433-1582] | > 100 | 
13 | 1.25 | CCc1ccccc1NCc1nc2[nH]c(C)c(Cc3ccc(Cl)cc3)c(=O)n2n1 [Example D433-1585] | 74.6 | 
14 | 2.99 | CCOC(=O)CCc1c(C)[nH]c2nc(CNc3ccc(C)c(Cl)c3)nn2c1=O [Example D433-1688] | > 100 | 
15 | 4.39 | CCCc1cc(=O)n2nc(CNc3cccc(C(F)(F)F)c3)nc2[nH]1 [Example D433-1725] | 1.17 | 
16 | 0.829 | CCCc1cc(=O)n2nc(CNc3ccc(Cl)cc3)nc2[nH]1 [Example D433-1739] |  | GI50 ([2]; 44 hours): 3.14 µM
17 | 2.86 | CCCc1cc(=O)n2nc(CNc3cccc(OC)c3)nc2[nH]1 [Example D433-1741] | 1.61 | 
18 | 0.57 | CCCc1cc(=O)n2nc(CNc3ccc(C)c(Cl)c3)nc2[nH]1 [Example D433-1748] | > 100 | 
19 | 2.15 | CCCc1cc(=O)n2nc(CNc3cccc(Cl)c3C)nc2[nH]1 [Example D433-1750] | > 100 | 
20 | 1.02 | Cc1ccc(NCc2nc3[nH]c(C(C)C)cc(=O)n3n2)cc1Cl [Example D433-1798] | > 100 | 
21 | 1.57 | O=c1c2c([nH]c3nc(CNc4cccc(Cl)c4)nn13)CCC2 [Example D433-1831] | > 100 | 
22 | 1.05 | O=c1c2c([nH]c3nc(CNc4ccc(Cl)cc4)nn13)CCC2 [Example D433-1839] | 81.5 | 
23 | 3.75 | COc1cccc(NCc2nc3[nH]c4c(c(=O)n3n2)CCC4)c1 [Example D433-1841] | > 100 | 
24 | 0.227 | Cc1ccc(NCc2nc3[nH]c4c(c(=O)n3n2)CCC4)cc1Cl [Example D433-1848] | > 100 | 
25 |  | N-methylprotoporphyrin [NMPP, reference compound] |  | FECH activity inhibition ([1]; 10 μM): completely inhibited; IC50 ([1]; positive control, in our assay, read-out: IC50 (FECH inhibition)): 0.45 µM; buildup of PPIX in HRECs [3]: induced a buildup of PPIX

Source: US12161642B2, “Ferrochelatase inhibitors and methods of use” (INDIANA UNIVERSITY RESEARCH AND TECHNOLOGY CORPORATION, priority 2018, dated 2024)
